The series can be described thus: physchem. Conditions: octanol/buffer.
The term logP denotes a log measure of how a compound divides between an organic and an aqueous phase. A higher logP goes with a more lipophilic compound. Turning to `COCCCc1cc(CN(C(=O)[C@H]2CNCC(=O)N2c2cnc(OCCCOCc3ccccc3OC)nc2)C2CC2)c(Cl)cn1`, the log partition coefficient (logP) was found to be 2.43.

In turn, `COCCCc1cc(CN(C(=O)[C@H]2CNCC(=O)N2c2ccc(CCCOc3cccc(Cl)c3)cc2)C2CC2)c(Cl)cn1` showed a log partition coefficient (logP) of 5.29.

In turn, `COCCCc1cc(CN(C(=O)[C@H]2CNCC(=O)N2c2ccc(CCCOc3c(F)ccc(F)c3F)cc2)C2CC2)c(Cl)cn1` returned a lipophilicity (logP) of 5.11.

The compound `COCCCc1cc(CN(C(=O)[C@H]2CNCC(=O)N2c2ccc(OCCOc3c(Cl)cc(C)cc3Cl)cc2)C2CC2)c(Cl)c[n+]1[O-]` came in with a logP of 5.43.

On to `COCCCc1cc(CN(C(=O)[C@H]2CNCC(=O)N2c2ccc(OCCOc3c(Cl)cc(C)cc3Cl)nc2)C2CC2)c(Cl)c[n+]1[O-]`, for which the log partition coefficient (logP) came out at 4.61.

In turn, `COCCCc1cc(CN(C(=O)[C@H]2CNCC(=O)N2c2ccc(COC(=O)c3ccccc3)cc2)C2CC2)c(Cl)c[n+]1[O-]` returned a lipophilicity (logP) of 4.33.

Take `COCCCc1cc(CN(C(=O)[C@H]2CNCC(=O)N2c2ccc(OCCCOCc3ccccc3)cc2)C2CC2)c(Cl)c[n+]1[O-]`: the logP stood at 4.71.

Turning to `COCCCc1cc(CN(C(=O)[C@H]2CNCC(=O)N2c2ccc(OCCCOCc3ccccc3OC)cc2)C2CC2)c(Cl)c[n+]1[O-]`, the logP came to 4.66.

The compound `COCCCc1cc(CN(C(=O)[C@H]2CNCC(=O)N2c2cnc(OCCCOCc3ccccc3OC)nc2)C2CC2)c(Cl)c[n+]1[O-]` came in with a logP of 2.65.

Compound `COCCCc1cc(CN(C(=O)[C@H]2CNCC(=O)N2c2ccc(CCCOc3cccc(Cl)c3)cc2)C2CC2)c(Cl)c[n+]1[O-]` registered a logP of 5.51.

Consider `COCCCc1cc(CN(C(=O)[C@H]2CNCC(=O)N2c2ccc(CCCOc3c(F)ccc(F)c3F)cc2)C2CC2)c(Cl)c[n+]1[O-]`, for which the logP came out at 5.33.

Regarding `CNCCc1ccc(Cl)c(CN(C(=O)[C@H]2CNCC(=O)N2c2ccc(OCCOc3c(Cl)cc(C)cc3Cl)cc2)C2CC2)c1`, the logP came out at 5.74.

As to `CNCCc1ccc(Cl)c(CN(C(=O)[C@H]2CNCC(=O)N2c2ccc(OCCOc3c(Cl)cc(C)cc3Cl)nc2)C2CC2)c1`, the logP was 4.91.

`CNC(=O)OCc1ccc(Cl)c(CN(C(=O)[C@H]2CNCC(=O)N2c2ccc(CCCOc3c(F)ccc(F)c3F)cc2)C2CC2)c1` had a logP of 5.48.

The compound `COC(=O)NCCc1ccc(Cl)c(CN(C(=O)[C@H]2CNCC(=O)N2c2ccc(OCCOc3c(Cl)cc(C)cc3Cl)cc2)C2CC2)c1` showed a logP of 5.67.

The compound `COC(=O)NCCc1ccc(Cl)c(CN(C(=O)[C@H]2CNCC(=O)N2c2ccc(OCCOc3c(Cl)cc(C)cc3Cl)nc2)C2CC2)c1` displayed a logP of 4.84.

As to `COC(=O)NCCc1ccc(Cl)c(CN(C(=O)[C@H]2CNCC(=O)N2c2ccc(COC(=O)c3ccccc3)cc2)C2CC2)c1`, the logP came out at 4.57.

With `COC(=O)NCCc1ccc(Cl)c(CN(C(=O)[C@H]2CNCC(=O)N2c2ccc(OCCCOCc3ccccc3)cc2)C2CC2)c1`, the logP amounted to 4.94.

`COC(=O)NCCc1ccc(Cl)c(CN(C(=O)[C@H]2CNCC(=O)N2c2ccc(OCCCOCc3ccccc3OC)cc2)C2CC2)c1`: the logP was determined as 4.9.

Take `COC(=O)NCCc1ccc(Cl)c(CN(C(=O)[C@H]2CNCC(=O)N2c2cnc(OCCCOCc3ccccc3OC)nc2)C2CC2)c1`: the logP came out at 2.88.

For `COC(=O)NCCc1ccc(Cl)c(CN(C(=O)[C@H]2CNCC(=O)N2c2ccc(CCCOc3cccc(Cl)c3)cc2)C2CC2)c1`, the logP is 5.74.

As for `COC(=O)NCCc1ccc(Cl)c(CN(C(=O)[C@H]2CNCC(=O)N2c2ccc(CCCOc3c(F)ccc(F)c3F)cc2)C2CC2)c1`, the logP was 5.56.

The compound `CNC(=O)OCCc1ccc(Cl)c(CN(C(=O)[C@H]2CNCC(=O)N2c2ccc(OCCOc3c(Cl)cc(C)cc3Cl)cc2)C2CC2)c1` had a logP of 5.67.

With `CNC(=O)OCCc1ccc(Cl)c(CN(C(=O)[C@H]2CNCC(=O)N2c2ccc(OCCOc3c(Cl)cc(C)cc3Cl)nc2)C2CC2)c1`, the lipophilicity (logP) came to 4.84.

`CNC(=O)OCCc1ccc(Cl)c(CN(C(=O)[C@H]2CNCC(=O)N2c2ccc(COC(=O)c3ccccc3)cc2)C2CC2)c1` gave a logP of 4.57.

For the compound `CNC(=O)OCCc1ccc(Cl)c(CN(C(=O)[C@H]2CNCC(=O)N2c2ccc(OCCCOCc3ccccc3)cc2)C2CC2)c1`, the logP stood at 4.94.

In turn, `CNC(=O)OCCc1ccc(Cl)c(CN(C(=O)[C@H]2CNCC(=O)N2c2ccc(OCCCOCc3ccccc3OC)cc2)C2CC2)c1` yielded a logP of 4.9.

The compound `CNC(=O)OCCc1ccc(Cl)c(CN(C(=O)[C@H]2CNCC(=O)N2c2cnc(OCCCOCc3ccccc3OC)nc2)C2CC2)c1` returned a logP of 2.88.

As to `CNC(=O)OCCc1ccc(Cl)c(CN(C(=O)[C@H]2CNCC(=O)N2c2ccc(CCCOc3cccc(Cl)c3)cc2)C2CC2)c1`, the log partition coefficient (logP) worked out at 5.74.

With `CNC(=O)OCCc1ccc(Cl)c(CN(C(=O)[C@H]2CNCC(=O)N2c2ccc(CCCOc3c(F)ccc(F)c3F)cc2)C2CC2)c1`, the logP was 5.56.

The compound `COC(=O)NCc1ccc(Cl)c(CN(C(=O)[C@H]2CNCC(=O)N2c2ccc(OCCOc3c(Cl)cc(C)cc3Cl)cc2)C2CC2)c1` showed a logP of 5.58.

`COC(=O)NCc1ccc(Cl)c(CN(C(=O)[C@H]2CNCC(=O)N2c2ccc(OCCOc3c(Cl)cc(C)cc3Cl)nc2)C2CC2)c1` yielded a logP of 4.75.

In turn, `CNCCc1ccc(Cl)c(CN(C(=O)[C@H]2CNCC(=O)N2c2ccc(COC(=O)c3ccccc3)cc2)C2CC2)c1` gave a log partition coefficient (logP) of 4.64.

`COC(=O)NCc1ccc(Cl)c(CN(C(=O)[C@H]2CNCC(=O)N2c2ccc(COC(=O)c3ccccc3)cc2)C2CC2)c1` had a lipophilicity (logP) of 4.48.

`COC(=O)NCc1ccc(Cl)c(CN(C(=O)[C@H]2CNCC(=O)N2c2ccc(OCCCOCc3ccccc3)cc2)C2CC2)c1`: the logP was 4.85.

On to `COC(=O)NCc1ccc(Cl)c(CN(C(=O)[C@H]2CNCC(=O)N2c2ccc(OCCCOCc3ccccc3OC)cc2)C2CC2)c1`, for which the logP is 4.81.

`COC(=O)NCc1ccc(Cl)c(CN(C(=O)[C@H]2CNCC(=O)N2c2cnc(OCCCOCc3ccccc3OC)nc2)C2CC2)c1`: the lipophilicity (logP) stood at 2.8.

`COC(=O)NCc1ccc(Cl)c(CN(C(=O)[C@H]2CNCC(=O)N2c2ccc(CCCOc3cccc(Cl)c3)cc2)C2CC2)c1` yielded a logP of 5.65.

With `COC(=O)NCc1ccc(Cl)c(CN(C(=O)[C@H]2CNCC(=O)N2c2ccc(CCCOc3c(F)ccc(F)c3F)cc2)C2CC2)c1`, the logP was 5.48.

`COCCCc1ccc(Cl)c(CN(C(=O)[C@H]2CNCC(=O)N2c2ccc(OCCOc3c(Cl)cc(C)cc3Cl)cc2)C2CC2)c1`: the logP is 6.49.

For `COCCCc1ccc(Cl)c(CN(C(=O)[C@H]2CNCC(=O)N2c2ccc(OCCOc3c(Cl)cc(C)cc3Cl)nc2)C2CC2)c1`, the logP was 5.66.

Consider `COCCCc1ccc(Cl)c(CN(C(=O)[C@H]2CNCC(=O)N2c2ccc(COC(=O)c3ccccc3)cc2)C2CC2)c1`, for which the lipophilicity (logP) was determined as 5.39.

In turn, `COCCCc1ccc(Cl)c(CN(C(=O)[C@H]2CNCC(=O)N2c2ccc(OCCCOCc3ccccc3)cc2)C2CC2)c1` returned a logP of 5.76.

In turn, `COCCCc1ccc(Cl)c(CN(C(=O)[C@H]2CNCC(=O)N2c2ccc(OCCCOCc3ccccc3OC)cc2)C2CC2)c1` registered a logP of 5.72.

`CNC(=O)OCc1ccc(Cl)c(CN(C(=O)[C@H]2CNCC(=O)N2c2ccc(COC(=O)c3ccccc3)cc2)C2CC2)c1` came in with a lipophilicity (logP) of 4.48.

As for `CNC(=O)OCc1ccc(Cl)c(CN(C(=O)[C@H]2CNCC(=O)N2c2ccc(OCCCOCc3ccccc3)cc2)C2CC2)c1`, the log partition coefficient (logP) was determined as 4.85.

Regarding `CNC(=O)OCc1ccc(Cl)c(CN(C(=O)[C@H]2CNCC(=O)N2c2ccc(OCCCOCc3ccccc3OC)cc2)C2CC2)c1`, the logP stood at 4.81.

`CNC(=O)OCc1ccc(Cl)c(CN(C(=O)[C@H]2CNCC(=O)N2c2cnc(OCCCOCc3ccccc3OC)nc2)C2CC2)c1` returned a logP of 2.8.

`CNC(=O)OCc1ccc(Cl)c(CN(C(=O)[C@H]2CNCC(=O)N2c2ccc(CCCOc3cccc(Cl)c3)cc2)C2CC2)c1` displayed a logP of 5.65.

`COCCCc1ccc(Cl)c(CN(C(=O)[C@H]2CNCC(=O)N2c2cnc(OCCCOCc3ccccc3OC)nc2)C2CC2)c1`: the logP came to 3.7.

The compound `COCCCc1ccc(Cl)c(CN(C(=O)[C@H]2CNCC(=O)N2c2ccc(CCCOc3cccc(Cl)c3)cc2)C2CC2)c1` registered a logP of 6.56.

Compound `COCCCc1ccc(Cl)c(CN(C(=O)[C@H]2CNCC(=O)N2c2ccc(CCCOc3c(F)ccc(F)c3F)cc2)C2CC2)c1` returned a logP of 6.39.

As for `Cc1cc(Cl)c(OCCOc2ccc(N3C(=O)CNC[C@@H]3C(=O)N(Cc3cc(CNC(=O)CC(F)(F)F)ccc3Cl)C3CC3)cc2)c(Cl)c1`, the logP was found to be 6.02.

For `Cc1cc(Cl)c(OCCOc2ccc(N3C(=O)CNC[C@@H]3C(=O)N(Cc3cc(CNC(=O)CC(F)(F)F)ccc3Cl)C3CC3)cn2)c(Cl)c1`, the logP came to 5.19.

For the compound `O=C(CC(F)(F)F)NCc1ccc(Cl)c(CN(C(=O)[C@H]2CNCC(=O)N2c2ccc(COC(=O)c3ccccc3)cc2)C2CC2)c1`, the logP was found to be 4.92.

For the compound `O=C(CC(F)(F)F)NCc1ccc(Cl)c(CN(C(=O)[C@H]2CNCC(=O)N2c2ccc(OCCCOCc3ccccc3)cc2)C2CC2)c1`, the logP came out at 5.29.

`COc1ccccc1COCCCOc1ccc(N2C(=O)CNC[C@@H]2C(=O)N(Cc2cc(CNC(=O)CC(F)(F)F)ccc2Cl)C2CC2)cc1`: the logP came to 5.25.

Take `COc1ccccc1COCCCOc1ncc(N2C(=O)CNC[C@@H]2C(=O)N(Cc2cc(CNC(=O)CC(F)(F)F)ccc2Cl)C2CC2)cn1`: the logP turned out to be 3.23.

Compound `O=C(CC(F)(F)F)NCc1ccc(Cl)c(CN(C(=O)[C@H]2CNCC(=O)N2c2ccc(CCCOc3cccc(Cl)c3)cc2)C2CC2)c1` came in with a lipophilicity (logP) of 6.09.

As to `O=C(CC(F)(F)F)NCc1ccc(Cl)c(CN(C(=O)[C@H]2CNCC(=O)N2c2ccc(CCCOc3c(F)ccc(F)c3F)cc2)C2CC2)c1`, the logP amounted to 5.91.

In the case of `COCCCc1cc(CN(C(=O)[C@H]2CNCC(=O)N2c2ccc(OCCOc3c(Cl)cc(C)cc3Cl)cc2)C2CC2)c(Cl)cn1`, the logP is 5.22.

`COCCCc1cc(CN(C(=O)[C@H]2CNCC(=O)N2c2ccc(OCCOc3c(Cl)cc(C)cc3Cl)nc2)C2CC2)c(Cl)cn1` gave a lipophilicity (logP) of 4.39.

`COCCCc1cc(CN(C(=O)[C@H]2CNCC(=O)N2c2ccc(COC(=O)c3ccccc3)cc2)C2CC2)c(Cl)cn1`: the logP was 4.11.

The compound `COCCCc1cc(CN(C(=O)[C@H]2CNCC(=O)N2c2ccc(OCCCOCc3ccccc3)cc2)C2CC2)c(Cl)cn1` registered a logP of 4.49.

`COCCCc1cc(CN(C(=O)[C@H]2CNCC(=O)N2c2ccc(OCCCOCc3ccccc3OC)cc2)C2CC2)c(Cl)cn1` displayed a logP of 4.44.

For the origin of these results see ChEMBL document CHEMBL1944551, “An integrated computational workflow for efficient and quantitative modeling of renin inhibitors” (Bioorg Med Chem, 2012).
